Laboratory results: ChEMBL document CHEMBL4393743, “Anti-tumor activity evaluation of novel tubulin and HDAC dual-targeting inhibitors” (Bioorg Med Chem Lett, 2019)
Calls of active or inactive are those of the source. The calls are words filed in the database; no cut-off is given here.

Tests used:
A549 [1] = experiment: Induction of apoptosis in human A549 cells assessed as live cells at 0.1 uM incubated for 72 hrs by Annexin V-FITC/propidium iodide-staining based flow cytometric analysis (reference value: 89.8%); assay type: functional
NCI-H226 = experiment: Antiproliferative activity against human NCI-H226 cells assessed as cell growth inhibition incubated for 72 hrs by MTT assay; assay type: functional, cell-based; conditions: NCI-H226, 72 h
[2] = biological target: T1, Protein deacetylase HDAC6 (Homo sapiens, UniProt Q9UBN7); experiment: Inhibition of HDAC6 (unknown origin) using Boc-Lys(Ac)-AMC as substrate incubated for 60 mins by fluorescence assay
T1 sequence (Q9UBN7 whole entry): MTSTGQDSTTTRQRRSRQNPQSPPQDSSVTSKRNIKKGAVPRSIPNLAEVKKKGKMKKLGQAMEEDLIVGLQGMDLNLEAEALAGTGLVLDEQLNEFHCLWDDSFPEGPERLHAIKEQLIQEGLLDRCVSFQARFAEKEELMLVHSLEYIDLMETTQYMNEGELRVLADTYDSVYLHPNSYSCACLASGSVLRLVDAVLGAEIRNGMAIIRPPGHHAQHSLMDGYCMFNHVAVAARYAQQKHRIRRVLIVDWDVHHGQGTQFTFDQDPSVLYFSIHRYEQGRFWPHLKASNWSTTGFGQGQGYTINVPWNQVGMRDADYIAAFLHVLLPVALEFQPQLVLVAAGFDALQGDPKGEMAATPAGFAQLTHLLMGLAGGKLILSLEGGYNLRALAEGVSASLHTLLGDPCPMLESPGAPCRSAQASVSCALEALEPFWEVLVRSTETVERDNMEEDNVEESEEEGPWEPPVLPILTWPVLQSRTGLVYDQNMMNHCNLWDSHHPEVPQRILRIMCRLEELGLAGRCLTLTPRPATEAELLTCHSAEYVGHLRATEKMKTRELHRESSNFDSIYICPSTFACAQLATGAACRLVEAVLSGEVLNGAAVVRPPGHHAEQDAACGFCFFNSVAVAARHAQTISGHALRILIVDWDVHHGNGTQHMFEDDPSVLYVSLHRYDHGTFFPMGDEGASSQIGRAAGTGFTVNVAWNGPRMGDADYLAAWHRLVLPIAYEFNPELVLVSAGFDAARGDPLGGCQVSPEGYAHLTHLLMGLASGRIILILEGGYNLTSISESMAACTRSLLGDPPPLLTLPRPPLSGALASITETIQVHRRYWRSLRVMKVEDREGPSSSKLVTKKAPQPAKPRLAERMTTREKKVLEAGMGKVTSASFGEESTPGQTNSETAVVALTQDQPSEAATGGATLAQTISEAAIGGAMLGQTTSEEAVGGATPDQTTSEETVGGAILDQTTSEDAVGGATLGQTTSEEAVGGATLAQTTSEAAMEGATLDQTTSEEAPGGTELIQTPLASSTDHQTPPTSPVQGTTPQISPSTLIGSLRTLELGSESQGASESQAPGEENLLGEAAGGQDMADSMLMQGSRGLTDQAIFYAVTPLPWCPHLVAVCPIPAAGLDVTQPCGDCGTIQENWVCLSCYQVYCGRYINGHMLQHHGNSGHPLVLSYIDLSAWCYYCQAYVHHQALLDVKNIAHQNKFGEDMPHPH

HeLa = experiment: Antiproliferative activity against human HeLa cells assessed as cell growth inhibition incubated for 72 hrs by MTT assay; assay type: functional, cell-based
A549 [3] = experiment: Antiproliferative activity against human A549 cells assessed as cell growth inhibition incubated for 72 hrs by MTT assay; assay type: functional, cell-based; conditions: A549, 72 h
SGC-7901 = experiment: Antiproliferative activity against human SGC7901 cells assessed as cell growth inhibition incubated for 72 hrs by MTT assay; assay type: functional, cell-based; conditions: SGC-7901, 72 h
HCT-116 = experiment: Antiproliferative activity against human HCT116 cells assessed as cell growth inhibition incubated for 72 hrs by MTT assay; assay type: functional, cell-based; conditions: HCT-116, 72 h
NCI-H460 = experiment: Antiproliferative activity against human NCI-H460 cells assessed as cell growth inhibition incubated for 72 hrs by MTT assay; assay type: functional, cell-based; conditions: NCI-H460, 72 h
MGC-803 = experiment: Antiproliferative activity against human MGC803 cells assessed as cell growth inhibition incubated for 72 hrs by MTT assay; assay type: functional, cell-based; conditions: MGC-803, 72 h
A549 [4] = experiment: Induction of apoptosis in human A549 cells assessed as early apoptotic cells at 0.1 uM incubated for 72 hrs by Annexin V-FITC/propidium iodide-staining based flow cytometric analysis (reference value: 1.8%); assay type: functional
A549 [5] = experiment: Induction of apoptosis in human A549 cells assessed as late apoptotic cells at 0.1 uM incubated for 72 hrs by Annexin V-FITC/propidium iodide-staining based flow cytometric analysis (reference value: 5.69%); assay type: functional
A549 [6] = experiment: Induction of apoptosis in human A549 cells assessed as necrotic cells at 0.1 uM incubated for 72 hrs by Annexin V-FITC/propidium iodide-staining based flow cytometric analysis (reference value: 2.76%); assay type: functional
A549 [7] = experiment: Induction of apoptosis in human A549 cells assessed as late apoptotic cells at 0.3 uM incubated for 72 hrs by Annexin V-FITC/propidium iodide-staining based flow cytometric analysis (reference value: 5.69%); assay type: functional
A549 [8] = experiment: Induction of apoptosis in human A549 cells incubated for 72 hrs by Annexin V-FITC/propidium iodide-staining based flow cytometric analysis; assay type: functional, cell-based
A549 [9] = experiment: Induction of cell cycle arrest in human A549 cells assessed as accumulation at S phase at 0.1 uM incubated for 36 hrs by propidium iodide staining based flow cytometry (reference value: 16.66%); assay type: functional
A549 [10] = experiment: Induction of cell cycle arrest in human A549 cells assessed as accumulation at G2/M phase at 0.1 uM incubated for 36 hrs by propidium iodide staining based flow cytometry (reference value: 10.83%); assay type: functional
A549 [11] = experiment: Induction of cell cycle arrest in human A549 cells assessed as accumulation at S phase at 1 uM incubated for 36 hrs by propidium iodide staining based flow cytometry (reference value: 16.66%); assay type: functional
A549 [12] = experiment: Induction of cell cycle arrest in human A549 cells assessed as accumulation at S phase at 3 uM incubated for 36 hrs by propidium iodide staining based flow cytometry (reference value: 16.66%); assay type: functional
A549 [13] = experiment: Induction of cell cycle arrest in human A549 cells assessed as accumulation at G2/M phase at 3 uM incubated for 36 hrs by propidium iodide staining based flow cytometry (reference value: 10.83%); assay type: functional
A549 [14] = experiment: Induction of cell cycle arrest in human A549 cells assessed as accumulation at G0/G1 phase at 10 uM incubated for 36 hrs by propidium iodide staining based flow cytometry (reference value: 72.51%); assay type: functional
A549 [15] = experiment: Antimigratory activity in human A549 cells at 5 to 10 uM incubated for 12 hrs in presence of mitomycin by inverted microscopic-based wound healing assay; assay type: functional, cell-based
[16] = biological target: Histone deacetylase (Homo sapiens) (UniProt Q13547+O15379+Q9UBN7+Q92769+Q9UQL6+Q8WUI4+Q9BY41+Q96DB2+P56524+Q9UKV0+Q969S8); conditions: HeLa, at 1 µM
Description: Inhibition of HDAC in human HeLa cell nuclear extracts at 1 uM

IC50 (NCI-H226): 7540 nM | IC50 [2]: 470 nM | IC50 (HeLa): 890 nM | IC50 (A549 [3]): 550 nM | IC50 (SGC-7901): 1060 nM | IC50 (HCT-116): 7460 nM | IC50 (NCI-H460): 2950 nM | IC50 (MGC-803): 3660 nM | inhibition [16]: 19.9%
Compound: COc1ccc(/C=C(\C)C(=O)c2cc(OC)c(OC)c(OC)c2)cc1OCCCC(=O)NO
Activity (A549 [1]): 84.8% | Activity (A549 [4]): 4.25% | Activity (A549 [5]): 9.41% | Activity (A549 [6]): 1.51% | Activity (A549 [7]): 10.1% | Activity (A549 [8]): Dose-dependent effect | Activity (A549 [9]): 22.09% | Activity (A549 [10]): 9.47% | Activity (A549 [11]): 20.54% | Activity (A549 [12]): 10.18% | Activity (A549 [13]): 80.69% | Activity (A549 [14]): 1.57% | Activity (A549 [15]): Active
